According to ChEMBL document CHEMBL1201862, “PubChem BioAssay data set” (2004):
Values joined by “and” are separate entries in the source; they are usually repeats but may differ in a detail not shown here. Identical values can stand only once.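 Five compound concentrations were applied to cells in 96-well plates for 48 hours; endpoints were derived by simple linear interpolation of the resulting dose-response curve. The concentration for 50% growth inhibition is given as GI50.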 Active and inactive are the calls of the source. Rule as the data show it: active = GI50 up to about 1.1 µM and inactive = higher. Where a SMILES comes first, the peptide text is derived from it. [ ]: non-standard residue; d: D form. The star is where a group is joined. Iva = CC[C](C)(N)C(=O)O; Boc = CC(C)(C)OC(=O)*; X54 = C1CCC(=NO*)C1

Tests used:
Test in all cases: NCI-60 cell line screen, 48 h
EKVX = test system: EKVX
HL-60 = test system: HL-60
KM12 = test system: KM12
Malme-3M = test system: Malme-3M
NCI-H226 = test system: NCI-H226
NCI-H522 = test system: NCI-H522
RPMI-8226 = test system: RPMI-8226
SF-539 = test system: SF-539
SK-MEL-5 = test system: SK-MEL-5
SK-OV-3 = test system: SK-OV-3
SNB-75 = test system: SNB-75
SW-620 = test system: SW-620
XF498 = test system: XF498
ACHN = test system: ACHN
LXFL 529 = test system: LXFL 529
M14 = test system: M14
MDA-MB-231 = test system: MDA-MB-231
MDA-N = test system: MDA-N
T47D = test system: T47D
Hs-578T = test system: Hs-578T

Measured: GI50

CC1=NN(C(=O)c2ccc(C)cc2)C(=O)C1/N=N/c1ccccc1C(=O)O (stereo not drawn)
inactive: EKVX > 100 µM | HL-60 > 62.7 µM | KM12 > 100 µM | Malme-3M > 100 µM | NCI-H226 > 100 µM | NCI-H522 29.6 µM | RPMI-8226 95.7 µM | SF-539 > 100 µM | SK-MEL-5 > 100 µM | SK-OV-3 > 100 µM | SNB-75 > 37.7 µM | SW-620 > 100 µM | XF498 61.8 µM

COc1cc2cc[n+]3c(C)c4cc(OC)c(OC)cc4c([O-])c3c2cc1OC
inactive: ACHN > 100 µM | EKVX > 100 µM | HL-60 16.9 µM | KM12 70.1 µM | LXFL 529 40.1 µM | M14 > 100 µM | Malme-3M 26.9 µM | NCI-H226 33.1 µM | NCI-H522 18.2 µM | RPMI-8226 > 100 µM | SF-539 36.9 µM | SK-MEL-5 36.8 µM | SK-OV-3 > 100 µM | SNB-75 33 µM | SW-620 41.9 µM | XF498 22.1 µM

COc1ccc(/C=N/n2cnc3c(c2=O)SC(=C(C#N)C#N)N3c2ccccc2)cc1
inactive: ACHN > 100 µM | HL-60 > 100 µM | KM12 > 100 µM | LXFL 529 > 100 µM | NCI-H226 > 100 µM | NCI-H522 56.2 µM | RPMI-8226 > 100 µM | SF-539 36.2 µM | SK-MEL-5 > 100 µM | SK-OV-3 > 100 µM | SNB-75 27.6 µM | SW-620 > 100 µM

COc1cc(C(O)(CC#N)c2cc3c(cc2Br)OCO3)cc(OC)c1OC (stereo not drawn)
inactive: ACHN 92.7 µM | EKVX 54.1 µM | KM12 21 µM | M14 4.62 µM | MDA-MB-231 21.4 µM | MDA-N 5.07 µM | NCI-H226 30.8 µM | RPMI-8226 50.7 µM | SF-539 8.05 µM | SK-OV-3 24.4 µM | SNB-75 65.3 µM | SW-620 40.3 µM | T47D > 100 µM

CSc1cc(=O)n2c3ccccc3c3ccnc1c32
inactive: EKVX 24.4 µM | HL-60 > 100 µM | KM12 > 82.2 µM | Malme-3M > 86.7 µM | NCI-H226 14.2 µM | NCI-H522 > 81.8 µM | RPMI-8226 > 90.8 µM | SF-539 > 50 µM | SK-MEL-5 43.4 µM | SK-OV-3 25.6 µM | SNB-75 > 69.3 µM | SW-620 > 100 µM

CCOC(=O)c1ccc(N2C(=O)/C(=C/c3ccc(N(CCC#N)CCC#N)cc3)N=C2c2cc([N+](=O)[O-])ccc2Cl)cc1
inactive: ACHN > 100 µM | EKVX > 100 µM | KM12 > 100 µM | LXFL 529 > 100 µM | Malme-3M > 100 µM | NCI-H226 > 100 µM | NCI-H522 > 100 µM | RPMI-8226 > 100 µM | SF-539 > 100 µM | SK-MEL-5 > 100 µM | SK-OV-3 > 100 µM | SW-620 > 100 µM

CC(=O)c1ccc(Oc2ccc(/C(C)=N\N=C(N)N)cc2)cc1
inactive: ACHN 4.73 µM | EKVX 4.51 µM | LXFL 529 4.18 µM | M14 1.5 µM | Malme-3M 1.97 µM | NCI-H522 1.8 µM | RPMI-8226 2.31 µM | SF-539 1.72 µM | SK-MEL-5 2.08 µM | SK-OV-3 2.83 µM | SNB-75 1.47 µM

O=C1C(Cl)N(c2ccc(Cl)cc2)C1c1c[nH]c2ccccc12 (stereo not drawn)
inactive: EKVX 16.9 µM | HL-60 15.8 µM | KM12 27 µM | LXFL 529 14.1 µM | M14 18.2 µM | Malme-3M 12.5 µM | NCI-H522 17.2 µM | RPMI-8226 20.6 µM | SF-539 18.2 µM | SK-MEL-5 15.5 µM | SK-OV-3 > 10 µM | SNB-75 19.1 µM | SW-620 26 µM | XF498 17.5 µM

C/C(=N/NC(=O)c1ccncc1)C(F)(F)F
inactive: HL-60 > 100 µM | Hs-578T > 100 µM | KM12 > 100 µM | M14 > 100 µM | Malme-3M > 100 µM | NCI-H226 > 100 µM | NCI-H522 > 100 µM | RPMI-8226 > 100 µM | SK-MEL-5 > 100 µM | SK-OV-3 > 100 µM | SNB-75 > 100 µM | T47D > 100 µM

COC(=O)/C=C\Sc1ccn(/C=C\C(=O)OC)c(=S)n1
inactive: ACHN 18.2 µM | EKVX 26.2 µM | HL-60 > 100 µM | Hs-578T 25.5 µM | KM12 12.4 µM | M14 49.9 µM | MDA-MB-231 26.1 µM | MDA-N 27.3 µM | Malme-3M 22.4 µM | NCI-H522 16.1 µM | RPMI-8226 46 µM | SF-539 18.4 µM | SK-MEL-5 24.1 µM | SNB-75 22.9 µM | SW-620 26 µM | T47D 18.4 µM

CC(Oc1ccc(Oc2cnc3ccc(Cl)cc3n2)cc1)C(=O)O (stereo not drawn)
inactive: ACHN 60.5 µM | EKVX > 100 µM | HL-60 > 100 µM | Hs-578T > 88.1 µM | M14 > 100 µM | MDA-MB-231 > 100 µM | Malme-3M 79.3 µM | NCI-H522 32.7 µM | SF-539 > 100 µM | SK-MEL-5 > 62.8 µM and 72.8 µM | SNB-75 47.3 µM | SW-620 > 99.8 µM | T47D 92 µM and 64.4 µM

CCC(C)(NC(=O)C(C)NC(=O)OC(C)(C)C)C(=O)NC(C)C(=O)NC(C)(CC)C(=O)ON=C1CCCC1 (stereo not drawn) (Boc-A[Iva]A[Iva]-X54; configuration not given here)
inactive: HL-60 > 100 µM | Hs-578T > 100 µM | KM12 > 100 µM | M14 > 100 µM | MDA-MB-231 > 100 µM | MDA-N > 100 µM | Malme-3M > 100 µM | NCI-H226 > 100 µM | NCI-H522 > 100 µM | RPMI-8226 > 100 µM | SK-MEL-5 > 100 µM | SK-OV-3 > 100 µM | SNB-75 > 100 µM | T47D > 100 µM
